Reference: publication PMC8675869, “Oral Efficacy of a Diselenide Compound Loaded in Nanostructured Lipid Carriers in a Murine Model of Visceral Leishmaniasis” (ACS Infectious Diseases, 2021)
Values after ≈ are worked out from the molar mass of the structure shown.

Legend:
[1] = In vitro hepatic microsomal metabolism; format: in vitro ADME, BALB/c mice; details: BALB/c; mouse liver microsomes 0.5 mg protein/mL, 500 μM compound, NADPH, 37 °C; read-out: microsomal stability t1/2 (converted)
Procedure: Liver microsomes were isolated as previously described with minor modifications.[57] Mouse livers were removed and rinsed with 0.9% (w/v) NaCl solution. Then, livers were homogenized in ice-cold 0.25 M sucrose in 0.1 M PBS (pH 7.5). After 20 min of centrifugation at 9000 × g, the supernatant was ultracentrifuged at 100,000 × g for 1 h at 4 °C. The obtained microsome pellet was washed with 0.05 M PBS (pH 7.5) followed by another ultracentrifugation at 100,000 × g for 1 h at 4 °C. Microsomes were resuspended in 20% glycerol–0.1 M PBS and stored at −80 °C until use. Protein concentration was measured by microBCA kit (Thermo Scientific). […] Controls without hepatic cofactor and blanks without compounds were also analyzed. Metabolism was determined at 0, 0.1, 0.25, 0.5, 1, 1.5, and 2 h by the addition of an equal volume of ice-cold ACN, and samples were centrifuged at 9000 × g for 10 min. Supernatants were stored at −20 °C until high liquid performance chromatography (HPLC) quantification analysis at 290 nm, as described in the Supporting Information. Results are expressed as mean ± SD of at least three replicates. […] The rate of microsomal intrinsic clearance (Clint,micr, mL·min^–1·kg^–1) was then calculated following eq 1([27]) [drawing 1] […]
The calculated Clint,micr was used for the prediction of in vivo intrinsic hepatic clearance (Clint) using eq 2 and suitable scaling factors[27] […]

[2] = Solubility in fasted simulated intestinal fluid (FaSSIF); format: physicochemical; details: thermodynamic from solid, fasted simulated intestinal fluid pH 6.5, 4 h, r.t., as Se content, read-out: solubility in SSIF
Procedure: This experiment determines the solubility of a solid compound in fasted simulated intestinal fluid (FaSSIF) at pH 6.5 after 4 h of equilibration at r.t.[58] In brief, 1 mL of FaSSIF (3 mM sodium taurocholate and 0.75 mM lecithin in sodium phosphate buffer at pH 6.5) was added to 2 mg of the solid compounds. The resulting suspensions were shaken at 900 rpm for 4 h at r.t. Then, they were centrifuged at 12,600 × g for 10 min. The amount of selenocompounds, as selenium (Se) content, remaining in the supernatant was quantified by graphite atomic absorption spectrometry, as described in the Supporting Information. Results are expressed as mean ± SD of three replicates.

[3] = Ex vivo intestinal permeability (Ussing chamber); format: in vitro ADME, Wistar rats; details: rat jejunum, mucosal-to-serosal, as Se content; for Papp at 2 h, 5 mM: female, Wistar, rat, pH 7.4, free compounds; for intestinal permeability Papp: free compounds
Procedure: Intestinal permeation experiments were performed by using the Ussing chamber method as previously described.[59] Wistar female rats were fasted for 16 h with free access to water before the experiment. Rats were anesthetized with isoflurane and sacrificed by cervical dislocation. Jejunum was aseptically extracted, excised in 2 cm segments avoiding Peyer’s patches, and placed in cold 0.9% NaCl solution. Jejunum segments were anchored into the Ussing chambers. All experiments were realized from the apical side or donor compartment (DC) to the basolateral or receptor (RC) direction. For 2h and 2m compounds experiments, 5 mL of deionized water at pH 7.4 containing 4% (w/v) D-α-tocopherol polyethylene glycol 1000 succinate, and 5% (w/v) PEG 400 was added to both compartments to ensure sink conditions. In the case of NLC, 5 mL of PBS was used in both compartments. Chambers were continuously oxygenated and maintained at 37 °C. After 10 min of preincubation, the solution in the DC was replaced by 5 mL of either 2h and 2m solutions (final concentration of 5 mM) or their lyophilized NLC diluted in PBS at a 1 mM (in selenocompound concentration). Samples of 500 μL were collected from the RC every 20 min up to 2 h and replaced by an equal volume of the RC solution. Samples were frozen at −20 °C until analysis. The membrane integrity was evaluated by the addition of yellow lucifer to the DC and the determination of its fluorescence at the end of the experiment.[60] Experiments were carried out in triplicate for each compound and formulation. Se content in the RC was analyzed by flame atomic absorption spectrometry, as explained in the Supporting Information. The apparent permeability coefficient per unit membrane surface area (Papp (cm/s)), expressed as mean ± SD, was calculated according to eq 3 [drawing 3] 3 where dQ/dt was the steady-flux (mg/s), C0 was the initial compound concentration in the DC (mg/mL), and A was the surface area of the membrane (cm^2). It has been stablished that, in general, compounds with Papp > 1 × 10^–6 cm/s are well-absorbed in the human intestinal tract whereas Papp < 1 × 10^–6 cm/s are correlated with poor absorption.[32]

[4] = In vitro release from NLC in SGF and SIF; format: physicochemical; details: cumulative Se release
Procedure: The release studies of compounds 2h and 2m were performed at 37 °C using simulated gastric fluid (SGF, pH 1.2, pepsin 0.32% (w/v)) and simulated intestinal fluid (SIF, pH 6.8, pancreatin 1% (w/v)) with 2% v/v PEG 400, 5% w/v D-α-tocopherol polyethylene glycol 1000 succinate and 2.5% v/v DMSO added to ensure sink conditions. The dialysis membranes (with 100 kDa pore size) were filled with 30 mg of lyophilized formulations either 2h-NLC or 2m-NLC (corresponding to around 60 μg of the selenocompounds) dispersed in 1 mL of distilled water. The loaded dialysis membranes were placed into a beaker containing 25 mL of SGF. The simulated fluid was kept under magnetic stirring at 150 rpm, and at fixed times 0.250 mL samples were withdrawn and replaced with an equal volume of SGF. Two hours after the incubation in SGF, the device was transferred to another beaker containing 25 mL of SIF magnetically stirred at 150 rpm. As previously, at fixed times, samples were withdrawn and replaced with free SIF. The in vitro release study finished 24 h after the experiment began. The amount of Se released from the nanocarriers was determined by graphite atomic absorption spectrometry, as described in the Supporting Information. Results are expressed as mean ± SD of at least three replicates.

[5] = Single-dose pharmacokinetic study in mice (plasma Se); details: BALB/c, mouse, in vivo, ip, 4 mg/kg
Procedure: A single-dose pharmacokinetic study of 2h, 2m, 2h-NLC, and 2m-NLC were evaluated in mice after i.p. (free drugs) or oral administration (free drugs and loaded into NLC). The dose (4 mg/kg) was selected taking into account LD50 obtained after i.p. administration of the compounds. Blood was collected from the submandibular plexus at different time points: 0, 0.25, 0.5, 1, 2, 4, 8, 24, and 48 h. Collected whole blood samples were centrifuged at 3000 × g for 10 min at 4 °C. The obtained plasma samples were stored at −80 °C until quantification of the drug by graphite atomic absorption spectroscopy, as described in the Supporting Information. Experiments were carried out in triplicate for each compound and formulation. Pharmacokinetic parameters were estimated by fitting the experimental data to a noncompartimental model (NCA) using PKsolver Excel program.[62] The analyzed parameters were as follows: Area under concentration–time curve (AUC), maximum serum concentration (Cmax), clearance (Cl), time of maximum concentration (tmax), mean residence time (MRT), and product half-life (t1/2). The extraction rate (ER) was calculated as the ratio between systemic blood clearance and mouse hepatic blood flow (considered 90 mL·min^–1·kg^–1). […]

[6] = Acute toxicity, Up-and-Down procedure (OECD 425), i.p.; details: mouse, in vivo, ip, 17.5 mg/kg, mice
Procedure: Acute toxicity was carried out following the Up-and-Down procedure proposed by the OECD 425.[61] Three mice were treated with a dose of 17.5 mg/kg of each compound, 2h and 2m, administered by i.p. route. If all the mice died, 1/3 of the dose was administered to other new three mice. If all of them survived, the dose was tripled. If one or two of them died, the same dose was administered to one or two mice more. Both compounds were solubilized in PEG 400:H2O:D-α-tocopherol polyethylene glycol 1000 succinate (60:38.4:1.6, v/v/w).

[7] = tested on: Salmonella typhimurium (TA1535/pSK1002 strain); assay: SOS/UMU genotoxicity test; format: cell-based; details: with or without metabolic activation, highest concentration 1 mg/mL
Procedure: Salmonella typhimurium (TA1535/pSK1002 strain) (DSMZ, Germany) was employed to determine the genotoxic potential of the compounds 2h and 2m and some of their possible metabolites, as previously described.[56] Bacteria were exposed to different concentrations of compounds either with or without metabolic activation (S9 mix, Mutazyme) to determine the bacterial survival percentage, calculated by measuring the absorbance at 600 nm. Afterward, the β-galactosidase activity was conducted using a colorimetric method employing o-nitrophenyl-β-D-galactopiranoside (ONPG) as a substrate. Genotoxicity activity was measured in terms of β-galactosidase activity calculating an induction factor (IF) relative to the negative control (i.e., bacteria exposed to the solvent) and positive controls (4-nitroquinoline for normal treatments and 2-aminoantracen for S9 metabolic activated treatments). A compound was considered genotoxic for IF values ≥2 at noncytotoxic concentration (i.e., bacterial survival ≥80%). The experiment was considered valid for positive controls if IF ≥ 2.

[8] = Solubilizing capability of Transcutol for the compounds; format: physicochemical; details: Transcutol as solvent
[9] = target: trypanothione reductase (TR); parameters: method as in PMID 33046492; details: concentration that inhibits TR activity by 50%; read-out: TR inhibition IC50; cited from earlier work
THP-1 cells = details: read-out: THP-1 cells CC50; concentration that kills cells by 50%; cited from earlier work
[10] = cited from earlier work
[11] = parameters: method as in PMID 25016034; details: daily oral administration for 90 days; cited from earlier work
[12] = parameters: method as in PMID 20643750; details: mice, administration for 13 weeks; cited from earlier work
[13] = after 4 h of incubation in SIF (following 2 h SGF)
[14] = first 2 h of incubation in SGF, 37 °C, sink conditions

Compound | half-life at 500 μM [1] | solubility at 4 h [2] | Papp at 2 h, 5 mM [3] | intestinal permeability Papp [3] | compound released from NLC [4, 13] | compound released from NLC [4, 14] | ER (extraction ratio) [5] | LD50 [6] | genotoxicity (SOS/UMU test) [7] | amount of compound dissolved in Transcutol [8] | IC50 [9] | CC50 (THP-1 cells) | logP [10] | no observed adverse effect level (NOAEL) [11] | NOAEL [12]
O=C(Nc1ccc([Se][Se]c2ccc(NC(=O)c3ccco3)cc2)cc1)c1ccco1 [2h, N,N′-(4,4′-diselanediylbis(4,1-phenylene))bis-furan-2-carboxamide] | 1.7 h | 3.2 ± 1.7 µg/mL (≈ 6.03 µM) | ~0.717 ×10⁻⁶ cm/s | 7.2 ± 2.6 (×10^–7) cm/s | around 13% | 5.5 ± 3.1% | <0.3 | 17.5 mg/kg | did not produce cytotoxicity and DNA damage | up to 6 mg of compound in 0.4 g | 14 ± 0.9 µM | > 50 µM | 1 | – | –
O=C(Nc1ccc([Se][Se]c2ccc(NC(=O)c3cccc4ccccc34)cc2)cc1)c1cccc2ccccc12 [2m, N,N′-(4,4′-diselanediylbis(4,1-phenylene))bisnaphthamide] | 1.2 h | 2.5 ± 0.5 µg/mL (≈ 3.84 µM) | ~0.591 ×10⁻⁶ cm/s | 5.9 ± 1.1 (×10^–7) cm/s | ~10% | 3.9 ± 0.3% | – | 17.5 mg/kg | did not produce cytotoxicity and DNA damage | up to 6 mg of compound in 0.4 g | 5.5 ± 0.1 µM | > 50 µM | 5 | – | –
CCOCCOCCO [Transcutol, diethylene glycol monoethyl ether] | – | – | – | – | – | – | – | – | – | – | – | – | – | 850 to 1000 mg/kg/day | –
Polysorbate 80 [Tween 80] | – | – | – | – | – | – | – | – | – | – | – | – | – | – | 10 g/kg/day
